Measured values published in patent publication US20240343828A1, “SPINK1 AS A TARGET FOR THERAPEUTIC INTERVENTION IN LUNG DISEASES” (Northwestern University, priority 2023, published 2024).

What was measured:
[1] = system: fibroblasts; assay: In vitro fibroblast gene expression with Spink1 incubation; type: cell-based; details: different Spink1 concentrations, 24 hours
Method: Applicant performed an in vitro experiment to further validate the functional role of SPINK1 in mediating fibroblasts and aSMA+ stromal cells. Applicant incubated fibroblasts with different concentration of recombinant mouse Spink1 protein for 24 hours and tested the gene expression level. […] However, the expression level of aSMA was elevated in response to Spink1 treatment (FIG. 23A). This implied that Spink1 could drive the differentiation of fibroblast toward aSMA+ stromal cells.

[2] = system: mouse lung; assay: H&E staining of mouse lung; type: in vivo; details: Spink1-treated mouse lungs
Method: (§1) The H&E histology experiment and trichome staining assay were conducted in histology core at northwestern university.

[3] = system: fibroblasts; assay: Fibroblast proliferation with Spink1 incubation; type: cell-based
Method: FIGS. 23A-23C: In vitro experiment to validate the functional role of Spink1 in mediating stromal cell activity. Gene expression changes in fibroblasts with the incubation of different concentration of Spink1 protein (FIG. 23A). The proliferation rate of fibroblasts with the incubation of Spink1 (FIG. 23B). The proliferation rate was calculated as the difference between end point and start point, followed by the division of start point value. Zero proliferation rate indicates no proliferation is detected. The changes of aSMA gene in fibroblasts with the incubation of Spink1 and EGFR inhibitor of AG1468 (FIG. 23C).
Applicant also tested the proliferation activity of fibroblast with the incubation of Spink1. […] Furthermore, Applicant hypothesized that the differentiation of fibroblast toward aSMA+ cells could be EGFR pathway dependent.

[4] = system: mouse; details: mice with bleomycin pre-treatment
Method: Two sets of experiment were set up: one set with bleomycin pretreatment and the other without bleomycin pretreatment(FIG. 10). Applicant labeled as the groups as: PBS, recombinant Spink1 protein, bleomycin and the combo of bleomycin and recombinant Spink1 protein (the last two groups are the one with bleomycin pretreatment).
For experiment one, Applicant have four groups as illustrated in FIG. 10. Intrathecal administration was used in this study and 20 ug recombinant protein was injected each time. For the group without bleomycin pretreatment, the animals were injected every third day until they were killed at day 22. For the group with bleomycin pretreatment, the animals were pretreated with bleomycin and then the first dose of recombinant Spink1 protein was injected at day 14 after the bleomycin pretreatment. Another 4 doses were given at day 21, day 24, day 27 and day 30. The animals were killed at day 34 and the tissues were harvested and frozen/fixed for further analysis.

[5] = system: mouse lung; assay: Trichome staining of mouse lung; type: in vivo; details: Spink1-treated mouse lungs
Method: as §1

[6] = system: mouse lung; assay: scRNA-seq analysis of lung tissues from the animal experiment; type: in vivo
Source text: Using the lung tissues collected from our animal experiment, Applicant performed the scRNA-seq analysis and identified 36 different cell types within epithelial, endothelial, stromal and immune compartments (FIG. 17A).
Since AT2s are the fibrosis driver^21,23, Applicant performed the differential gene expression between bleomycin vs combo treatment to identify the potential genes that are invoked by Spink1.

[7] = system: mouse lung; assay: Sircol assay of collagen content; type: in vivo
Source text: To further understand the impact of Spink1 on lung fibrosis, Applicant performed the molecular experiment to mutate Spink amino acid sequence. Applicant generated two Spink1 variants (protein 2: R19Y and protein 3: R19A) to denote the ones with activity preserved (protein 2: R19Y) and activity ablation (protein 3: R19A). Applicant used these two variants, together with Spink1 wild type protein and PBS, to conduct the animal experiments using healthy mice (FIG. 15).

[8] = pathway enrichment, PBS vs Spink1 treatment

Spink1: recombinant mouse Spink1 (Spink3) protein, homologue of human SPINK1, Serine protease inhibitor Kazal-type 1 (AKVTGKEASCHDAVAGCPRIYDPVCGTDGITYANECVLCFENRKRIEPVLIRKGGPC; UniProt P09036 24-80, looked up)
expression level of Col1a1 [1]: not significantly changed
expression level of Fibronectin [1]: not significantly changed
expression level of aSMA [1]: elevated
alveolar damage and immune cell infiltration (H&E) [2]: notable alveolar damage and immune cell infiltration
proliferation rate of fibroblast ([3]; 24 hr Spink1 incubation): high proliferation rate
proliferation rate of fibroblast ([3]; 48 hr incubation): increased rate disappears
body weight change [4]: induce weight loss
collagen deposition (trichome staining) [5]: high level of collagen accumulated
gene set "Negative regulation of fibroblast proliferation" (GSEA) ([6]; AT2, combo vs bleomycin): induces the down-regulation
phagosome maturation gene set (GSEA) ([6]; AT2, combo vs bleomycin): significantly down-regulated
expression level of Cdc42 ([6]; mouse treated with Spink1): significantly decreased expression level
apoptosis of aSMA+ cells [6, 8]: arrested the apoptosis of aSMA+ cells
wound healing pathway in fibroblasts [6, 8]: downregulated
expression level of Ftl1 ([6]; regardless of the bleomycin pretreatment): seems to vanish
collagen accumulation (Sircol) ([7]; healthy animals, no bleomycin pretreatment): can induce the collagen accumulation
collagen content (Sircol) ([7]; mice with Spink1 treatment, 20 ug per injection): accumulative collagen content

bleomycin [reference compound]
Cthrc1+ fibroblasts in stromal compartment ([6]; mouse lung scRNA-seq): induces the overproduction of Cthrc1^+ fibroblasts

protein 3: R19A: Spink1 variant R19A with activity ablation (AKVTGKEASCHDAVAGCPAIYDPVCGTDGITYANECVLCFENRKRIEPVLIRKGGPC; UniProt P09036 24-80, looked up, variant R19A)
collagen accumulation (Sircol), Spink1 variants ([7]; healthy mice, 6 doses, compared with wild type Spink1 and PBS): fails to induce collagen accumulation
